The Papp A→B is the apparent permeability from the apical to the basolateral side of a cell layer.

These results are taken from article PMC8152814, “The modulatory role of sulfated and non-sulfated small molecule heparan sulfate-glycomimetics in endothelial dysfunction: absolute structural clarification, molecular docking and simulated dynamics, SAR analyses and ADMET studies” (RSC Medicinal Chemistry, 2021).

The data set in a line: Caco-2 permeability (bi-directional). The data set is classed as in vitro ADME. Conditions: human, Caco-2; A2B, 10 µM, 120 min. On the procedure: Physicochemical and ADMET properties of representative glycomimetics. […]
ymax = mean vehicle control response
Caco-2 Permeability (A-B or Bi-directional)
Caco-2 cells (ATCC, Virginia, USA) are used between passage numbers 40-60. Cells are seeded onto Millipore Multiscreen Transwell plates at 1 x 10^5 cells/cm2. The cells are cultured in DMEM and media is changed every two or three days. On day 20 the permeability study is performed. Cell culture and assay incubations are carried out at 37 °C in an atmosphere of 5 % CO2 with a relative humidity of 95%. On the day of the assay, the monolayers are prepared by rinsing both apical and basolateral surfaces twice with Hanks Balanced Salt Solution (HBSS) at the desired pH warmed to 37 °C. Cells are then incubated with HBSS at the desired pH in both apical and basolateral compartments for 40 min to stabilise physiological […]
The dosing solutions are prepared by diluting test compound with assay buffer to give a final test compound concentration of 10 µM (final DMSO concentration of 1 % v/v). The fluorescent integrity marker lucifer yellow is also included in the dosing solution. Analytical standards are prepared from test compound DMSO dilutions and transferred to buffer, maintaining a 1% v/v DMSO concentration. Typical assay buffer is composed of supplemented HBSS pH 7.4 but a range of other buffers and pH values can be used.
For assessment of A-B permeability, HBSS is removed from the apical compartment and replaced with test compound dosing solution. The apical compartment insert is then placed into a companion plate containing fresh buffer (containing 1 % v/v DMSO). For assessment of B-A permeability, HBSS is removed from the companion plate and replaced with test compound dosing solution. Fresh buffer (containing 1 % v/v DMSO) is added to the apical compartment insert, which is then placed into the companion plate.
At 120 min the apical compartment inserts and the companion plates are separated and apical and basolateral samples diluted for analysis. Test compound permeability is assessed in duplicate. Compounds of known permeability characteristics are run as controls on each assay plate. Test and control compounds are quantified by LC-MS/MS cassette analysis using an 8-point calibration with appropriate dilution of the samples. The starting concentration (C0) is determined from the dosing solution and the experimental recovery calculated from C0 and both apical and basolateral compartment concentrations.
The integrity of the monolayer throughout the experiment is checked by monitoring lucifer yellow permeation using fluorimetric analysis. Lucifer yellow permeation is high if monolayers have been damaged. If a lucifer yellow Papp value is above a pre-defined threshold in one individual test compound well, the compound may be re-tested or an n = 1 result is reported.
If lucifer yellow Papp values are above the threshold in both replicate wells for a test compound, the compound is re-tested. If this re-occurs upon repeat in both wells then toxicity or inherent fluorescence of the test compound is assumed.
The permeability coefficient (Papp) for each compound is calculated from the following […]
Where dQ/dt is the rate of permeation of the drug across the cells, C0 is the donor compartment concentration at time zero and A is the area of the cell monolayer. C0 is obtained from analysis […]
For bi-directional experiments, an efflux ratio (ER) is calculated from mean A-B and B-A data.
Three control compounds are screened alongside the test compounds, atenolol (human absorption 50%), propranolol (human absorption 90%) and talinolol (a substrate for […]
(In general: Passage across Caco-2 layers is used to estimate intestinal permeability.)

The structures appear in SMILES notation.

On to `COC(=O)c1cc(OC[C@H](COS(=O)(=O)[O-])OS(=O)(=O)[O-])ccc1OCCCCOS(=O)(=O)[O-].[Na+].[Na+].[Na+]` [Compound R-10, sodium (R)-3-(3-(methoxycarbonyl)-4-(4-(sulfonatooxy)butoxy)phenoxy)propane-1,2-diyl bis(sulfate)], for which the Papp A→B at 2 h, 10 µM turned out to be 9.31 nm/s.
